Experimental data as given in the supplement of paper PMC10307832.

Tests used:
Experiment in all cases: relative viability (nuclei count vs DMSO), 5 days (fraction); higher = more cells survive
Imatinib + Luminespib = compound: Cc1ccc(NC(=O)c2ccc(CN3CCN(C)CC3)cc2)cc1Nc1nccc(-c2cccnc2)n1 [Imatinib] + CCNC(=O)c1noc(-c2cc(C(C)C)c(O)cc2O)c1-c1ccc(CN2CCOCC2)cc1 [Luminespib] (partner 0.01 µM)
Summary of the method: (§1)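 After 5 days of treatment, lung cancer cells in 1536-well plates were fixed and stained in a single step (final 0.05% Triton X-100, 1% formaldehyde, 1 ug/ml Hoechst) and their nuclei counted on 4× images. Treatment had been applied by pin tool the day after seeding as one drug alone or as a fixed anchor-drug dose with five library-drug doses (not always all listed) in √10 steps. Relative viability is the nuclei count of treated wells divided by that of vehicle wells, and values are medians of duplicate plates.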

Imatinib + Dasatinib = compound: Cc1ccc(NC(=O)c2ccc(CN3CCN(C)CC3)cc2)cc1Nc1nccc(-c2cccnc2)n1 [Imatinib] + Cc1nc(Nc2ncc(C(=O)Nc3c(C)cccc3Cl)s2)cc(N2CCN(CCO)CC2)n1 [Dasatinib] (partner 0.075 µM)
Summary of the method: as §1

Imatinib + Decitabine = compound: Cc1ccc(NC(=O)c2ccc(CN3CCN(C)CC3)cc2)cc1Nc1nccc(-c2cccnc2)n1 [Imatinib] + Nc1ncn([C@H]2C[C@H](O)[C@@H](CO)O2)c(=O)n1 [Decitabine] (partner 2 µM)
Summary of the method: as §1

Imatinib + Olaparib = compound: Cc1ccc(NC(=O)c2ccc(CN3CCN(C)CC3)cc2)cc1Nc1nccc(-c2cccnc2)n1 [Imatinib] + O=C(c1cc(Cc2n[nH]c(=O)c3ccccc23)ccc1F)N1CCN(C(=O)C2CC2)CC1 [Olaparib] (partner 8 µM)
Summary of the method: as §1

| Cell Line | relative viability (Imatinib + Luminespib; first compound 0.02 µM) | relative viability (Imatinib + Luminespib; first compound 0.2 µM) | relative viability (Imatinib + Luminespib; first compound 0.6325 µM) | relative viability (Imatinib + Luminespib; first compound 2 µM) | relative viability (Imatinib + Dasatinib; first compound 0.02 µM) | relative viability (Imatinib + Dasatinib; first compound 0.2 µM) | relative viability (Imatinib + Dasatinib; first compound 0.6325 µM) | relative viability (Imatinib + Dasatinib; first compound 2 µM) | relative viability (Imatinib + Decitabine; first compound 0.02 µM) | relative viability (Imatinib + Decitabine; first compound 0.06325 µM) | relative viability (Imatinib + Decitabine; first compound 0.2 µM) | relative viability (Imatinib + Decitabine; first compound 0.6325 µM) | relative viability (Imatinib + Decitabine; first compound 2 µM) | relative viability (Imatinib + Olaparib; first compound 0.02 µM) | relative viability (Imatinib + Olaparib; first compound 0.06325 µM) | relative viability (Imatinib + Olaparib; first compound 0.2 µM) | relative viability (Imatinib + Olaparib; first compound 0.6325 µM) | relative viability (Imatinib + Olaparib; first compound 2 µM) | relative viability (Imatinib + Luminespib; first compound 0.06325 µM) | relative viability (Imatinib + Dasatinib; first compound 0.06325 µM) |
| --- | --- | --- | --- | --- | --- | --- | --- | --- | --- | --- | --- | --- | --- | --- | --- | --- | --- | --- | --- | --- |
| NCI-H2405 | 0.682 | 0.575 | 0.58 | 0.76 | 0.22 | 0.203 | 0.217 | 0.192 | 0.707 | 0.636 | 0.848 | 0.724 | 0.722 | 0.933 | 0.947 | 0.919 | 0.875 | 0.922 |  |  |
| NCI-H1648 |  |  |  |  |  |  |  |  | 0.442 | 0.478 | 0.448 | 0.393 | 0.456 | 0.958 | 0.633 | 0.971 | 0.307 | 0.776 |  |  |
| NCI-H1915 | 1.1 | 0.694 | 0.637 | 0.766 | 0.298 | 0.368 | 0.312 | 0.305 | 0.257 |  | 0.281 | 0.276 | 0.243 | 0.237 |  | 0.253 | 0.26 | 0.234 |  |  |
| SW 1573 | 0.23 | 0.293 | 0.26 | 0.233 | 0.525 | 0.604 | 0.517 | 0.531 | 0.646 | 0.4 | 0.575 | 0.471 | 0.437 | 0.62 | 0.704 | 0.425 | 0.485 | 0.559 | 0.348 | 0.314 |
| EKVX |  | 0.817 | 0.926 | 0.847 | 0.58 | 0.549 | 0.502 | 0.505 | 0.325 |  | 0.375 | 0.352 |  | 1.05 |  | 1.12 | 0.923 |  | 0.712 |  |
| NCI-H358 | 0.317 | 0.501 | 0.308 | 0.418 | 0.151 | 0.153 | 0.163 | 0.135 | 0.205 | 0.168 | 0.214 | 0.207 | 0.202 | 0.733 | 0.699 | 0.613 | 0.549 | 0.556 | 0.608 | 0.13 |
| HCC-78 |  |  |  |  | 0.343 | 0.403 | 0.35 | 0.343 | 0.644 | 0.7 | 0.715 | 0.721 | 0.71 | 0.564 | 0.688 | 1.09 | 0.885 | 0.999 |  | 0.355 |
| LXF-289 | 0.805 | 0.615 | 0.566 | 0.672 | 0.216 | 0.217 | 0.19 | 0.195 | 0.387 |  | 0.407 | 0.391 | 0.405 | 1.1 |  | 1.35 |  | 1.13 | 0.5 | 0.259 |
| NCI-H2085 | 0.548 | 0.421 | 0.463 | 0.541 |  | 0.248 | 0.208 | 0.228 | 0.529 | 0.556 | 0.513 | 0.61 | 0.527 | 0.765 | 0.759 | 0.825 | 0.784 | 0.742 | 0.628 | 0.18 |
| NCI-H441 | 0.37 | 0.448 | 0.304 | 0.309 | 0.713 | 0.693 | 0.745 | 0.546 | 0.252 | 0.234 | 0.249 | 0.26 | 0.268 | 0.577 | 0.793 | 0.554 | 0.6 | 0.635 | 0.326 | 0.619 |
| 201T | 1.09 | 1.11 | 0.96 | 1.03 | 0.594 | 0.625 | 0.61 | 0.496 | 0.855 | 0.8 | 0.841 | 0.852 | 0.843 | 0.879 | 0.873 | 0.845 | 0.814 | 0.836 |  |  |
| RERF-LC-KJ | 1.27 | 1.3 | 1.03 | 1.31 | 0.927 | 0.987 | 0.771 | 0.841 | 0.755 | 0.558 | 0.655 |  | 0.754 | 1.03 | 0.933 | 1.1 |  | 0.898 | 1.3 | 0.602 |
| NCI-H520 | 0.21 | 0.23 | 0.189 | 0.198 | 0.158 | 0.206 | 0.186 | 0.169 | 0.531 | 0.514 | 0.532 | 0.508 | 0.487 | 0.368 | 0.356 | 0.305 | 0.301 | 0.371 | 0.236 | 0.213 |
| IA-LM |  |  |  |  |  |  |  |  |  |  |  |  |  | 0.917 | 0.884 | 0.996 | 0.977 | 0.734 |  |  |
| NCI-H1792 | 0.519 | 0.432 | 0.447 | 0.365 | 0.847 | 0.769 | 0.596 | 0.666 | 0.573 | 0.496 | 0.576 |  | 0.449 | 0.477 | 0.481 | 0.225 |  | 0.33 | 0.321 | 0.429 |
| HCC-44 | 1.24 |  | 0.959 |  |  |  |  |  | 0.967 |  | 0.954 | 0.971 | 0.899 | 0.956 |  |  | 1.02 | 0.967 | 0.552 |  |
| LK-2 | 0.168 | 0.168 | 0.196 | 0.199 | 0.258 | 0.282 | 0.276 | 0.15 | 0.336 | 0.323 | 0.237 |  | 0.183 | 0.725 | 0.629 | 0.711 |  | 0.92 | 0.174 | 0.266 |
| NCI-H1734 | 0.194 | 0.181 | 0.177 | 0.233 | 0.478 | 0.45 | 0.442 | 0.427 | 0.522 |  | 0.573 | 0.486 | 0.533 | 0.621 |  | 0.605 | 0.648 | 0.639 | 0.204 | 0.457 |
| NCI-H1299 |  |  |  |  |  |  |  |  |  |  |  |  |  | 0.987 | 0.948 | 1.01 | 0.983 | 0.97 |  |  |
| Calu-6 |  |  |  |  |  |  |  |  |  |  |  |  |  | 0.658 | 0.628 | 0.673 | 0.575 | 0.549 |  |  |
| CAL-12T | 0.365 | 0.363 | 0.397 | 0.198 | 0.625 | 0.612 | 0.503 | 0.51 |  |  |  |  |  | 0.756 |  | 0.735 | 0.634 | 0.77 |  |  |
